Experimental data taken from the NIST ThermoML archive (doi:10.1021/je300945r).
± gives the expanded uncertainty stated by the source.

F/C=C/C(F)(F)F [trans-1,3,3,3-tetrafluoropropene]
mass density (242.91 K, 56.6 kPa, Gas, isochoric method): 3.322 ± 0.11 kg/m3 | mass density (242.91 K, 56.7 kPa, Gas, isochoric method): 3.322 ± 0.11 kg/m3 | mass density (252.89 K, 59.4 kPa, Gas, isochoric method): 3.322 ± 0.11 kg/m3 | mass density (252.9 K, 59.4 kPa, Gas, isochoric method): 3.322 ± 0.11 kg/m3 | mass density (262.9 K, 62 kPa, Gas, isochoric method): 3.311 ± 0.11 kg/m3 | mass density (262.91 K, 61.9 kPa, Gas, isochoric method): 3.311 ± 0.11 kg/m3 | mass density (262.94 K, 139.4 kPa, Gas, isochoric method): 7.692 ± 0.11 kg/m3 | mass density (262.95 K, 139.4 kPa, Gas, isochoric method): 7.692 ± 0.11 kg/m3 | mass density (272.84 K, 64.4 kPa, Gas, isochoric method): 3.311 ± 0.11 kg/m3 | mass density (272.85 K, 64.4 kPa, Gas, isochoric method): 3.311 ± 0.11 kg/m3 | mass density (272.87 K, 145.5 kPa, Gas, isochoric method): 7.634 ± 0.11 kg/m3 | mass density (282.6 K, 151.4 kPa, Gas, isochoric method): 7.634 ± 0.11 kg/m3 | mass density (282.63 K, 66.9 kPa, Gas, isochoric method): 3.311 ± 0.1 kg/m3 | mass density (282.66 K, 238.8 kPa, Gas, isochoric method): 12.5 ± 0.11 kg/m3 | mass density (283.14 K, 1620 kPa, Liquid, Vibrating tube method): 1214.3 ± 1.6 kg/m3 | mass density (283.14 K, 2638 kPa, Liquid, Vibrating tube method): 1218.5 ± 1.6 kg/m3 | mass density (283.14 K, 3662 kPa, Liquid, Vibrating tube method): 1222.4 ± 1.6 kg/m3 | mass density (283.14 K, 5710 kPa, Liquid, Vibrating tube method): 1229.8 ± 1.6 kg/m3 | mass density (283.14 K, 6721 kPa, Liquid, Vibrating tube method): 1233.2 ± 1.6 kg/m3 | mass density (283.14 K, 7725 kPa, Liquid, Vibrating tube method): 1236.6 ± 1.6 kg/m3 | mass density (283.14 K, 11789 kPa, Liquid, Vibrating tube method): 1249.5 ± 1.6 kg/m3 | mass density (283.14 K, 12805 kPa, Liquid, Vibrating tube method): 1252.4 ± 1.6 kg/m3 | mass density (283.14 K, 15859 kPa, Liquid, Vibrating tube method): 1261.2 ± 1.7 kg/m3 | mass density (283.14 K, 16870 kPa, Liquid, Vibrating tube method): 1263.9 ± 1.7 kg/m3 | mass density (283.14 K, 18876 kPa, Liquid, Vibrating tube method): 1269.4 ± 1.7 kg/m3 | mass density (283.14 K, 20909 kPa, Liquid, Vibrating tube method): 1274.5 ± 1.7 kg/m3 | mass density (283.15 K, 619 kPa, Liquid, Vibrating tube method): 1210.5 ± 1.6 kg/m3 | mass density (283.15 K, 4689 kPa, Liquid, Vibrating tube method): 1226.1 ± 1.6 kg/m3 | mass density (283.15 K, 8745 kPa, Liquid, Vibrating tube method): 1240 ± 1.6 kg/m3 | mass density (283.15 K, 9760 kPa, Liquid, Vibrating tube method): 1243.2 ± 1.6 kg/m3 | mass density (283.15 K, 10765 kPa, Liquid, Vibrating tube method): 1246.5 ± 1.6 kg/m3 | mass density (283.15 K, 13827 kPa, Liquid, Vibrating tube method): 1255.7 ± 1.7 kg/m3 | mass density (283.15 K, 14841 kPa, Liquid, Vibrating tube method): 1258.4 ± 1.7 kg/m3 | mass density (283.15 K, 17875 kPa, Liquid, Vibrating tube method): 1266.7 ± 1.7 kg/m3 | mass density (283.15 K, 19891 kPa, Liquid, Vibrating tube method): 1272 ± 1.7 kg/m3 | mass density (283.15 K, 21921 kPa, Liquid, Vibrating tube method): 1277.1 ± 1.7 kg/m3 | mass density (283.15 K, 22932 kPa, Liquid, Vibrating tube method): 1279.6 ± 1.7 kg/m3 | mass density (283.15 K, 23948 kPa, Liquid, Vibrating tube method): 1281.9 ± 1.7 kg/m3 | mass density (283.15 K, 24959 kPa, Liquid, Vibrating tube method): 1284.4 ± 1.7 kg/m3 | mass density (283.15 K, 25966 kPa, Liquid, Vibrating tube method): 1286.7 ± 1.7 kg/m3 | mass density (283.15 K, 26982 kPa, Liquid, Vibrating tube method): 1289.1 ± 1.7 kg/m3 | mass density (283.15 K, 27984 kPa, Liquid, Vibrating tube method): 1291.3 ± 1.7 kg/m3 | mass density (283.15 K, 28987 kPa, Liquid, Vibrating tube method): 1293.4 ± 1.7 kg/m3 | mass density (283.15 K, 30001 kPa, Liquid, Vibrating tube method): 1295.7 ± 1.7 kg/m3 | mass density (283.15 K, 31009 kPa, Liquid, Vibrating tube method): 1297.8 ± 1.7 kg/m3 | mass density (283.15 K, 32017 kPa, Liquid, Vibrating tube method): 1300.1 ± 1.7 kg/m3 | mass density (283.15 K, 33020 kPa, Liquid, Vibrating tube method): 1302.1 ± 1.7 kg/m3 | mass density (283.15 K, 34022 kPa, Liquid, Vibrating tube method): 1304.2 ± 1.7 kg/m3 | mass density (292.54 K, 157.2 kPa, Gas, isochoric method): 7.634 ± 0.1 kg/m3 | mass density (292.56 K, 248.7 kPa, Gas, isochoric method): 12.5 ± 0.11 kg/m3 | mass density (292.56 K, 248.8 kPa, Gas, isochoric method): 12.5 ± 0.11 kg/m3 | mass density (292.76 K, 366.1 kPa, Gas, isochoric method): 19.231 ± 0.12 kg/m3 | mass density (292.83 K, 415.4 kPa, Gas, isochoric method): 22.222 ± 0.12 kg/m3 | mass density (293.14 K, 778 kPa, Liquid, Vibrating tube method): 1179.9 ± 1.6 kg/m3 | mass density (293.14 K, 1644 kPa, Liquid, Vibrating tube method): 1184.2 ± 1.6 kg/m3 | mass density (293.14 K, 2650 kPa, Liquid, Vibrating tube method): 1188.7 ± 1.6 kg/m3 | mass density (293.14 K, 4727 kPa, Liquid, Vibrating tube method): 1197.6 ± 1.6 kg/m3 | mass density (293.14 K, 5738 kPa, Liquid, Vibrating tube method): 1201.8 ± 1.6 kg/m3 | mass density (293.14 K, 6755 kPa, Liquid, Vibrating tube method): 1205.9 ± 1.6 kg/m3 | mass density (293.14 K, 7761 kPa, Liquid, Vibrating tube method): 1209.7 ± 1.6 kg/m3 | mass density (293.14 K, 8772 kPa, Liquid, Vibrating tube method): 1213.4 ± 1.6 kg/m3 | mass density (293.14 K, 10798 kPa, Liquid, Vibrating tube method): 1220.7 ± 1.6 kg/m3 | mass density (293.14 K, 12817 kPa, Liquid, Vibrating tube method): 1227.5 ± 1.6 kg/m3 | mass density (293.14 K, 13830 kPa, Liquid, Vibrating tube method): 1230.8 ± 1.6 kg/m3 | mass density (293.14 K, 15838 kPa, Liquid, Vibrating tube method): 1236.9 ± 1.6 kg/m3 | mass density (293.14 K, 16853 kPa, Liquid, Vibrating tube method): 1240.1 ± 1.7 kg/m3 | mass density (293.14 K, 17857 kPa, Liquid, Vibrating tube method): 1243 ± 1.7 kg/m3 | mass density (293.14 K, 20900 kPa, Liquid, Vibrating tube method): 1251.6 ± 1.7 kg/m3 | mass density (293.14 K, 21921 kPa, Liquid, Vibrating tube method): 1254.3 ± 1.7 kg/m3 | mass density (293.14 K, 22938 kPa, Liquid, Vibrating tube method): 1257.2 ± 1.7 kg/m3 | mass density (293.14 K, 23953 kPa, Liquid, Vibrating tube method): 1259.7 ± 1.7 kg/m3 | mass density (293.14 K, 24957 kPa, Liquid, Vibrating tube method): 1262.3 ± 1.7 kg/m3 | mass density (293.14 K, 31009 kPa, Liquid, Vibrating tube method): 1277.1 ± 1.7 kg/m3 | mass density (293.14 K, 32027 kPa, Liquid, Vibrating tube method): 1279.3 ± 1.7 kg/m3 | mass density (293.15 K, 69.4 kPa, Gas, isochoric method): 3.311 ± 0.099 kg/m3 | mass density (293.15 K, 3682 kPa, Liquid, Vibrating tube method): 1193.3 ± 1.6 kg/m3 | mass density (293.15 K, 9788 kPa, Liquid, Vibrating tube method): 1217.1 ± 1.6 kg/m3 | mass density (293.15 K, 11799 kPa, Liquid, Vibrating tube method): 1223.9 ± 1.6 kg/m3 | mass density (293.15 K, 14835 kPa, Liquid, Vibrating tube method): 1233.8 ± 1.6 kg/m3 | mass density (293.15 K, 18879 kPa, Liquid, Vibrating tube method): 1246.2 ± 1.7 kg/m3 | mass density (293.15 K, 19891 kPa, Liquid, Vibrating tube method): 1248.9 ± 1.7 kg/m3 | mass density (293.15 K, 25973 kPa, Liquid, Vibrating tube method): 1264.9 ± 1.7 kg/m3 | mass density (293.15 K, 26985 kPa, Liquid, Vibrating tube method): 1267.4 ± 1.7 kg/m3 | mass density (293.15 K, 27991 kPa, Liquid, Vibrating tube method): 1270 ± 1.7 kg/m3 | mass density (293.15 K, 28993 kPa, Liquid, Vibrating tube method): 1272.4 ± 1.7 kg/m3 | mass density (293.15 K, 30001 kPa, Liquid, Vibrating tube method): 1274.8 ± 1.7 kg/m3 | mass density (293.15 K, 33027 kPa, Liquid, Vibrating tube method): 1281.7 ± 1.7 kg/m3 | mass density (293.15 K, 34035 kPa, Liquid, Vibrating tube method): 1284 ± 1.7 kg/m3 | mass density (293.16 K, 69.4 kPa, Gas, isochoric method): 3.311 ± 0.099 kg/m3 | mass density (302.54 K, 258.5 kPa, Gas, isochoric method): 12.5 ± 0.11 kg/m3 | mass density (302.54 K, 258.6 kPa, Gas, isochoric method): 12.5 ± 0.11 kg/m3 | mass density (302.67 K, 71.8 kPa, Gas, isochoric method): 3.311 ± 0.096 kg/m3 | mass density (302.67 K, 162.7 kPa, Gas, isochoric method): 7.634 ± 0.099 kg/m3 | mass density (302.69 K, 162.7 kPa, Gas, isochoric method): 7.634 ± 0.099 kg/m3 | mass density (302.78 K, 381.8 kPa, Gas, isochoric method): 19.231 ± 0.11 kg/m3
